Results taken from PMC7497253, “Structure‐Based Macrocyclization of Substrate Analogue NS2B‐NS3 Protease Inhibitors of Zika, West Nile and Dengue viruses” (Chemmedchem, 2020).
Read-outs that look alike come from different tables or passages of the source. Starred links: 1 amine or outer side, 2 acyl side, 3 side chain; linkers in the order of their positions; H or OH if unused. Positions of bridges follow the written chain, without caps; N, C: chain ends. Non-standard residues stand in square brackets, D forms with d. Residues, ends and D or L forms follow the SMILES beside them. dεLys(Nα-amidino) = N=C(N)N[C@H](CCCCN[*:1])C(=O)[*:2]; NHCH2(1,3-C6H4)CH2CO = O=C(Cc1cccc(CN[*:1])c1)[*:2]; βAla = NCCC(=O)O

Legend:
Format in all cases: biochemical
[1] = molecular target: T1, bZiPro (unlinked binary Zika virus NS2B-NS3 protease) (Zika virus, UniProt A0A024B7W1); assay: Enzyme kinetics with bZiPro, fluorogenic substrate Phac-Leu-Lys-Lys-Arg-AMC; details: for Ki: mean±SD of at least three independent measurements, substrate 10 μM in assay, room temperature, pH 8.5
T1 construct: The viral protease consists of the N‐terminal third of the nonstructural protein NS3; the NS2B construct ends at Glu96; His6 (cleaved yes); made in house
Experimental: (§1) Enzyme kinetics. Measurements with bZiPro15 and the covalent WNV NS2B‐NS3 construct^10 were performed at room temperature in black 96 well plates using a Fluoroskan Ascent® plate reader (Thermo Fisher Scientific, Vantaa, Finland) with λ ex at 355 nm and λ em at 460 nm. Each well contained 125 μL inhibitor dissolved in buffer (for bZiPro: 20 mM Tris×HCl pH 8.5, 2 mM DTT, 10 w/v glycerol and 0.01 w/v Triton X‐100;18 for WNV protease: 100 mM Tris×HCl pH 8.5, containing 32 w/v glycerol and 0.01 w/v Triton X‐10012) and 50 μL substrate Phac‐Leu‐Lys‐Lys‐Arg‐AMC12 (40 μM for bZiPro (10 μM in assay, K M=1.4 μM) and 400 μM for the WNV protease (100 μM in assay, K M=53 μM)). The measurements were started by addition of 25 μL enzyme solution (16 nM for bZiPro (2.0 nM in assay), and 64 nM for the WNV protease (8.0 nM in assay)). Data points were collected each 15 s over a period of 10 min using eight different inhibitor concentrations. […] The K i values and their standard deviation were obtained from at least three independent measurements.(1) vi=Vmax×[S]/KM1+[I]/Ki+[S]
The constants K M and V max were obtained from independent measurements with six different substrate concentrations in absence of inhibitor. For inhibitor 10 with bZiPro, additional measurements at three substrate concentrations (10, 5, and 2.5 μM in assay) were performed to obtain the Dixon plot shown in Figure 4.

[2] = molecular target: T2, bD4Pro (unlinked binary dengue-4 virus NS2B-NS3 protease) (Dengue virus type 4, UniProt Q2YHF2); assay: Enzyme kinetics with bD4Pro, substrate Benzoyl-Nle-Lys-Arg-Arg-AMC
T2 construct: The viral protease consists of the N‐terminal third of the nonstructural protein NS3; NS3 has to form a complex with its cofactor NS2B to achieve proteolytic activity; His6 (cleaved yes); made in house
T2 sequence (Q2YHF2 1475-1652 limits assumed): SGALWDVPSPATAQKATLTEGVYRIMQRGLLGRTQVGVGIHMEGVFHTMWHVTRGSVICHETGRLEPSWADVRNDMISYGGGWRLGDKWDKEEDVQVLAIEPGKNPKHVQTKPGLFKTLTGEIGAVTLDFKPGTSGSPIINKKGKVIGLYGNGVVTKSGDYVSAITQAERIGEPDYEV
T2 sequence (Q2YHF2 1397-1436 limits assumed): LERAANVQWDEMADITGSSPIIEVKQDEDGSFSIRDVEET
Experimental: Measurements with the dengue 4 virus protease construct (bD4Pro; expressed and purified by a similar methodology as described for bZiPro15 with slight modification of using Tobacco Etch Virus (TEV) protease instead of thrombin for His6‐tag cleavage) were performed in a Cytation 3 Mulitmode plate reader with λ ex at 380 nm and λ em at 460 nm. Assays were carried out as triplicate at 37 °C. Before measurement, the protease (final assay concentration 3 nM) was preincubated with varying concentrations of inhibitors in assay buffer (20 mM Tris pH 8.5, 10 % glycerol, 0.01 % Triton X‐100) for 1 h at room temperature in Corning black clear bottom 96‐well plates. The reaction was started by addition of the substrate Benzoyl‐Nle‐Lys‐Arg‐Arg‐AMC (final assay concentration 50 μM, K M=48.4 μM). Fluorescent readings were recorded at 1‐minute intervals over 10 minutes. The steady‐state rates v i in presence of inhibitor were calculated from the slopes of the progress curves using Graph Pad Prism. The v i values were fitted to Equation (2) as function of the inhibitor concentration [I] providing the IC50 values, where v 0 is the rate in absence of inhibitor and s a slope factor. The obtained IC50 values were finally converted into K i values by the Cheng‐Prusoff Equation (2).(2) vi=v0/1+I/IC50^s (3) Ki=IC50/1+S/KM

[3] = molecular target: T3, WNV NS2B-NS3 protease (WNV-Pro) (West Nile virus, UniProt P06935); assay: Enzyme kinetics with the covalent WNV NS2B-NS3 construct, substrate Phac-Leu-Lys-Lys-Arg-AMC
T3 construct: NS3 has to form a complex with its cofactor NS2B to achieve proteolytic activity; The viral protease consists of the N‐terminal third of the nonstructural protein NS3
Experimental: as §1

[4] = mean±SD of at least three independent measurements, 37 °C, IC50 converted into K i by Cheng-Prusoff, read-out: K i bD4Pro
[5] = mean±SD of at least three independent measurements, substrate 100 μM in assay, room temperature, pH 8.5, read-out: K i WNV-Pro

T1 sequence (A0A024B7W1 1503-1680 limits assumed): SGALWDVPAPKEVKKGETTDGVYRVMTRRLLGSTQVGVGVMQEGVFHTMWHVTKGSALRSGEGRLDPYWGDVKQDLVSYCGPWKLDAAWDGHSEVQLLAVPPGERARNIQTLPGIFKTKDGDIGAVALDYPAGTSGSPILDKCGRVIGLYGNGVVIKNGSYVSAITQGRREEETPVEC
T1 sequence (A0A024B7W1 1425-1464 limits assumed): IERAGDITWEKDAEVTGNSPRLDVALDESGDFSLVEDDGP
T3 sequence (P06935 1424-1463): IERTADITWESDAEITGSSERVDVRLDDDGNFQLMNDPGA
T3 sequence (P06935 1502-1679): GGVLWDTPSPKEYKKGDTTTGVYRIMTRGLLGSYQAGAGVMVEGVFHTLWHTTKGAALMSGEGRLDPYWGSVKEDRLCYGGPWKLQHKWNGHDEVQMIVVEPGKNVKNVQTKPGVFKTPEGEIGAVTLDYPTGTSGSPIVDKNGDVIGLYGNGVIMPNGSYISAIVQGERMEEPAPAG

| SMILES | Ki ([1]; K i bZiPro) [nM] | Ki [2] [nM] | Ki [3] [nM] | Ki ([1]; read-out: K i bZiPro) [nM] | Ki [2, 4] [nM] | Ki [3, 5] [nM] | times less potent inhibitor of bZiPro than analogue 10 ([1]; compared with cyclic analogue 10) | fold improved potency compared with 29 ([1]; uncharged amide analogue versus free P1 carboxyl compound 29) |
| --- | --- | --- | --- | --- | --- | --- | --- | --- |
| CC(C)[C@@H]1NC(=O)[C@H](NC(=N)N)CCCCNC(=O)[C@H](CCCCN)NC(=O)[C@H](CCCCN)NC(=O)Cc2cccc(c2)CNC1=O [Inhibitor 17] | 42.8 ± 2.2 | 2810 ± 180 | 6710 ± 320 |  |  |  |  |  |
| CC(C)[C@H]1NC(=O)[C@H](NC(=N)N)CCCCNC(=O)[C@H](CCCCN)NC(=O)[C@H](CCCCN)NC(=O)Cc2cccc(c2)CNC1=O [Inhibitor 18] | 7.74 ± 0.66 | 486 ± 27 | 439 ± 28 |  |  |  |  |  |
| N=C(N)N[C@@H]1CCCCNC(=O)[C@H](CCCCN)NC(=O)[C@H](CCCCN)NC(=O)Cc2cccc(c2)CNC(=O)[C@H]2CCCN2C1=O [Inhibitor 19] | 17.7 ± 0.5 | 4080 ± 260 | 850 ± 68 |  |  |  |  |  |
| NCCCC[C@@H]1NC(=O)Cc2cccc(c2)CNC(=O)CNC(=O)[C@H](N)CCCCNC(=O)[C@H](CCCCN)NC1=O [Inhibitor 20] (H-[dK]G[NHCH2(1,3-C6H4)CH2CO]KK; lactam 1-C) | 23000 | 282000 | 99000 |  |  |  |  |  |
| NCCCC[C@@H]1NC(=O)Cc2cccc(c2)CNC(=O)CNC(=O)[C@H](NC(N)=O)CCCCNC(=O)[C@H](CCCCN)NC1=O [Inhibitor 21] | 12000 | 135000 | 68000 |  |  |  |  |  |
| N=C(N)N[C@@H]1CCCCNC(=O)[C@H](CCCCN)NC(=O)[C@H](CCCCN)NC(=O)CCCNC(=O)CNC1=O [Inhibitor 22] | 124 ± 8 | 6090 ± 470 | 6700 ± 520 |  |  |  |  |  |
| N=C(N)N[C@@H]1CCCCNC(=O)[C@H](CCCCN)NC(=O)[C@H](CCCCN)NC(=O)CCCCNC(=O)CNC1=O [Inhibitor 23] | 16.7 ± 3.4 | 1120 ± 50 | 1220 ± 20 |  |  |  |  |  |
| N=C(N)N[C@@H]1CCCCNC(=O)[C@H](CCCCN)NC(=O)[C@H](CCCCN)NC(=O)CCCCCNC(=O)CNC1=O [Inhibitor 24] | 15.4 ± 2.6 | 1990 ± 90 | 973 ± 173 |  |  |  |  |  |
| N=C(N)N[C@@H]1CCCCNC(=O)[C@H](CCCCN)NC(=O)[C@H](CCCCN)NC(=O)CNC(=O)CNC(=O)CNC1=O [Inhibitor 25] (cyclo(GGGKK[dεLys(Nα-amidino)])) | 3.74 ± 0.2 | 378 ± 27 | 129 ± 7 |  |  |  |  |  |
| N=C(N)N[C@@H]1CCCCNC(=O)[C@H](CCCCN)NC(=O)[C@H](CCCCN)NC(=O)CCNC(=O)CNC(=O)CNC1=O [Inhibitor 26] (cyclo(GG[βAla]KK[dεLys(Nα-amidino)])) |  |  |  | 1.72 ± 0.03 | 160 ± 5 | 68.6 ± 13.1 |  |  |
| N=C(N)N[C@@H]1CCCCNC(=O)[C@H](CCCCN)NC(=O)[C@H](CCCCN)NC(=O)CNC(=O)CCNC(=O)CNC1=O [Inhibitor 27] (cyclo(G[βAla]GKK[dεLys(Nα-amidino)])) |  |  |  | 7.35 ± 0.39 | 815 ± 79 | 468 ± 3 |  |  |
| N=C(N)N[C@@H]1CCCCNC(=O)[C@H](CCCCN)NC(=O)[C@H](CCCCN)NC(=O)CNC(=O)CNC(=O)CCNC1=O [Inhibitor 28] (cyclo([βAla]GGKK[dεLys(Nα-amidino)])) |  |  |  | 12.8 ± 0.5 | 2720 ± 190 | 974 ± 134 |  |  |
| N=C(N)N[C@H](CCCCNC(=O)[C@H](CCCCN)NC(=O)[C@H](CCCCN)NC(=O)Cc1cccc(CNC(=O)CN)c1)C(=O)O [Inhibitor 29] | 2040 ± 600 | 75000 ± 3400 | 51600 ± 700 |  |  |  | more than 1000 times |  |
| N=C(N)N[C@H](CCCCNC(=O)[C@H](CCCCN)NC(=O)[C@H](CCCCN)NC(=O)Cc1cccc(CNC(=O)CN)c1)C(N)=O [Inhibitor 30] | 13.6 ± 2.6 | 775 ± 47 | 1550 ± 380 |  |  |  |  | more than 100 fold |
| CC(=O)NCc1cccc(CC(=O)N[C@@H](CCCCN)C(=O)N[C@@H](CCCCN)C(=O)NCCCC[C@@H](NC(=N)N)C(N)=O)c1 [Inhibitor 31] | 9.48 ± 0.61 | 1210 ± 90 | 1480 ± 100 |  |  |  |  |  |
